This series in a line: Human HepG2 cell viability assay in 384 well format. The series is classed as toxicity, cell-based. Set-up: dose 125 nL, time 70.5 hour; concentration not given beside the values. To be noted: HepG2 cells, read-out: Inhibition.

Turning to `COc1ccc(CNc2cnn(C)c(=O)c2Cl)cc1`, the cytotoxicity at 70.5 h came out at 1.82%. As for `Cn1ccc(C(=O)NCc2ccc(N3CCOCC3)nc2)cc1=O`, the figure is -12%. With `Cn1cc(C(=O)NCc2ccc(N3CCCC3)nc2)ccc1=O`, the cytotoxicity at 70.5 h is -8.81%. In the case of `CCCC(C#N)NC(=O)c1cc(Br)c2c(c1)OCCO2` (stereo not drawn), the cytotoxicity at 70.5 h was -11.4%. As for `CC(Cc1cccs1)NC(=O)CCn1cccn1` (stereo not drawn), the figure is -0.682%; as for `OC(CNCCn1cccn1)c1ccc(C(F)(F)F)cc1` (stereo not drawn), -4.94%.

For the compound `OC(CNCCn1cccn1)c1cccc(Br)c1` (stereo not drawn), the cytotoxicity at 70.5 h was -8.75%. As for `COCCC(C)NC(=O)c1cc(Br)c2c(c1)OCCO2` (stereo not drawn), the figure is -10.3%; as for `CCC(C)NC(=O)c1cc(Br)c2c(c1)OCCO2` (stereo not drawn), -1.67%; as for `Cc1cc(OCC(=O)N2CCCC(c3nc(C)c(C)s3)C2)no1` (stereo not drawn), 11.5%. As for `Cc1cc(OCC(=O)N2CCCC(c3nccs3)C2)no1` (stereo not drawn), the figure is -2.96%.

On to `Cc1cn2c(n1)CCC(NC(=O)c1oc(Br)cc1C)C2` (stereo not drawn), for which the cytotoxicity at 70.5 h is -11.5%. In the case of `CNc1snc(C)c1C(=O)N1CCCC(n2nc(C)nc2C)C1` (stereo not drawn), the cytotoxicity at 70.5 h was -10.6%. Regarding `Cc1cn2c(n1)CCC(NC(=O)c1[nH]ncc1Br)C2` (stereo not drawn), the cytotoxicity at 70.5 h is -9.45%. As for `Cc1nc(C2CCCN2CC(=O)Nc2cc(C(C)(C)C)nn2C)no1` (stereo not drawn), the figure is -6.05%; as for `Cn1ncc(NCc2cccc(OCC(F)(F)F)c2)c(Cl)c1=O`, 18.3%. For `CCn1cnnc1CNC(=O)N1CCC(C)CC1`, the cytotoxicity at 70.5 h was determined as 16.5%. Turning to `O=C(CN1CCOC(CNc2cccnn2)C1)NCc1ccccn1` (stereo not drawn), the cytotoxicity at 70.5 h was found to be 19%.

For `COc1c(C2CCCN2Cc2noc(C(C)C)n2)c(C)nn1C` (stereo not drawn), the cytotoxicity at 70.5 h is 28.5%. As for `COc1c(CNC(c2ccc(F)cc2)c2nccn2C)c(C)nn1C` (stereo not drawn), the cytotoxicity at 70.5 h worked out at 45.1%.

`CN(C)C(=O)CN1CCN(C(=O)Cc2csc(-c3ncccn3)n2)CC1`: the cytotoxicity at 70.5 h was -4.31%. On to `CC(C(=O)N1CCCN(c2ccc(C#N)cc2)CC1)n1ccnc1` (stereo not drawn), for which the cytotoxicity at 70.5 h is -1.24%. As for `CCN(Cc1ccc2c(c1)OCO2)C(=O)c1ccc(C)[nH]c1=O`, the figure is 35.4%.

Take `NC(=O)CC1CCN(C(=O)CCOc2ccc(Cl)cc2)CC1`: the cytotoxicity at 70.5 h was -1.2%. As for `COc1c(CNCc2ccc(N(C)C)nc2)c(C(C)C)nn1C`, the figure is 1.68%. For the compound `Cc1nc2ccccc2c(=O)n1CCC(=O)N1CCSCC1`, the cytotoxicity at 70.5 h was -4.52%. As for `COCC(=O)NC(C)Cc1cccc(Br)c1` (stereo not drawn), the figure is 33.7%; as for `Cc1nn(C)c(N(C)C)c1CNC1CCOc2c(F)cccc21` (stereo not drawn), 13.3%. For the compound `COC1CCN(C(=O)Cc2csc(-c3ncccn3)n2)CC1`, the cytotoxicity at 70.5 h was -3.38%. As for `Cc1cccc(C(=O)NC(CN2CCCC2=O)c2ccccc2)n1` (stereo not drawn), the cytotoxicity at 70.5 h amounted to 0.515%. On to `CCn1c(CN2CCN(CC(N)=O)CC2)nc2c(F)cccc21`, for which the cytotoxicity at 70.5 h was -0.996%.

For `CCNc1cc2c(nn1)CCN(C(=O)c1ccc3cc[nH]c3c1)C2`, the cytotoxicity at 70.5 h was found to be 2.8%. Turning to `COc1c(CNC(c2nccn2C)C(C)C)c(C)nn1C` (stereo not drawn), the cytotoxicity at 70.5 h was -6.48%.

Consider `CS(=O)(=O)N1CCCCCC1C1CCN(c2ncccc2C#N)CC1` (stereo not drawn), for which the cytotoxicity at 70.5 h is -0.285%. For `Cn1cc(CNC2CCCN(Cc3noc(C4CC4)n3)C2)cn1` (stereo not drawn), the cytotoxicity at 70.5 h was found to be 3.36%.

As for `CC(O)CN1CCN(C(=O)c2ccc(Br)o2)CC1` (stereo not drawn), the cytotoxicity at 70.5 h is -19.8%. As for `COc1cccc(COCC(O)CN2CC(n3cccn3)C2)c1` (stereo not drawn), the figure is -6.05%. As for `N#CC1(C(=O)N2CCN(c3nccs3)CC2)CCCCC1`, the figure is -10.1%; as for `CCOc1ccccc1OC1CCN(C(=O)c2ccc(=O)[nH]n2)CC1`, -7.24%. With `N#Cc1ccnc(N2CCN(C(=O)Cc3ccc4c(c3)CCO4)CC2)c1`, the cytotoxicity at 70.5 h is -7.76%. As for `Cc1nn(C)c(N2CCOCC2)c1CNCc1nccs1`, the cytotoxicity at 70.5 h was -6.17%. As for `CC(C)Oc1ncccc1CNC(=O)N1CCC(C(N)=O)C1` (stereo not drawn), the figure is -12.5%; as for `O=C(c1ccc(-n2ccnc2)nc1)N1CCCC(n2cccn2)C1` (stereo not drawn), 1.69%.

Turning to `Cc1nnc2n1CCN(Cc1ncc(-c3ccc(Cl)cc3)o1)C2`, the cytotoxicity at 70.5 h was -11%. As for `c1cnn(C2CN(Cc3nc(-c4ccsc4)no3)C2)c1`, the cytotoxicity at 70.5 h was -11.9%.

Regarding `COc1ccc(-c2cnc(CN3CCn4c(C)nnc4C3)o2)cc1`, the cytotoxicity at 70.5 h was determined as 22.7%. On to `Cc1cc(C)c(CNC(=O)NCCOc2ccc3c(c2)CCC3)c(=O)[nH]1`, for which the cytotoxicity at 70.5 h was -9.44%.

Regarding `CC(C(=O)NCc1ccnc(N2CCN(C)CC2)c1)n1cccn1` (stereo not drawn), the cytotoxicity at 70.5 h is -5.91%.

As for `Cc1cc(C2CCCN2C(=O)c2cc3c(s2)CCC3)on1` (stereo not drawn), the cytotoxicity at 70.5 h is -16.3%.

As for `c1cnc(-c2nc(CNCCn3cccn3)cs2)nc1`, the cytotoxicity at 70.5 h came to 8.63%. As for `c1ccc(-c2noc(CN3CCOC(Cn4cccn4)C3)n2)nc1` (stereo not drawn), the cytotoxicity at 70.5 h is -8.08%. As for `CCc1nc(CN2CCCC(NCc3nc4cccnc4[nH]3)C2)no1` (stereo not drawn), the figure is 18.9%.

For the compound `CNS(=O)(=O)Cc1ccc(CNC(=O)Nc2cccnc2)cc1`, the cytotoxicity at 70.5 h was found to be 13.3%.

As for `O=C(Nc1ccccn1)C1=NN(c2ccccc2)C(=O)CN1`, the cytotoxicity at 70.5 h came out at 45.9%. For the compound `CC(=O)N1CCN(C(=O)CCCc2nc(C(C)C)no2)CC1`, the cytotoxicity at 70.5 h stood at 11.7%. As for `CC(C(=O)NCCOc1cccc(Cl)c1)n1cncn1` (stereo not drawn), the figure is -9.41%.

As for `CC(Cn1ccnc1)NC(=O)C1(c2ccc3c(c2)OCCO3)CCCC1` (stereo not drawn), the cytotoxicity at 70.5 h worked out at 14.5%. As for `CC(Cn1cccn1)NC(=O)NCCc1cnn(C)c1` (stereo not drawn), the figure is -16.3%; as for `CNS(=O)(=O)Cc1ccc(CNC(=O)Nc2cn[nH]c2)cc1`, -11.3%.

For the compound `Cc1ccc(S(=O)(=O)Nc2ccc(=O)n(C)c2)cc1`, the cytotoxicity at 70.5 h is -13.1%. As to `COc1cccc(C2CCCN2Cc2nc3c(cnn3C)c(=O)[nH]2)c1` (stereo not drawn), the cytotoxicity at 70.5 h is -1.55%. As for `Cc1ccc(C2CCCN2Cc2nc3c(cnn3C)c(=O)[nH]2)cc1C` (stereo not drawn), the figure is -15.6%. Consider `CC(Cn1ccnc1)NC(=O)C1(c2ccc(F)cc2)CC1` (stereo not drawn), for which the cytotoxicity at 70.5 h was -8.11%. Turning to `COc1ccc2c(c1)CN(Cc1nc3c(cnn3C)c(=O)[nH]1)CC2`, the cytotoxicity at 70.5 h was 45.5%. As for `O=C(CN1CCC(N2CCNC2=O)CC1)NCC(F)(F)F`, the figure is -11.3%; as for `COC(=O)c1ccc(N2CCN(C(=O)c3cc(C)on3)C(C)C2)cc1` (stereo not drawn), -15.3%; as for `COC(=O)c1ccc(N2CCN(C(=O)c3cnn(C)c3)C(C)C2)cc1` (stereo not drawn), 16.7%.

Turning to `CC(C)c1ccc(C(C)NC(=O)N2CCC(n3cncn3)CC2)cc1` (stereo not drawn), the cytotoxicity at 70.5 h was -13.4%. As for `Cc1cnn(CCNCC(O)COc2c(C)ccc(C)c2C)c1` (stereo not drawn), the figure is -5.42%; as for `CNc1cc2c(nn1)CCN(C(=O)C1CCCc3ccccc31)C2` (stereo not drawn), -19%; as for `Cn1cc(C2CCCN2C(=O)CCCOc2ccc(F)cc2F)cn1` (stereo not drawn), -11.3%. As for `CN(CC(=O)N1CCCC1Cn1cccn1)C1CC1` (stereo not drawn), the figure is -14.3%; as for `CN1CCN(C2CCN(CC(=O)NCC(F)(F)F)CC2)C1=O`, -6.61%.

The record behind these values is ChEMBL document CHEMBL3507680, “University of Dundee, Gates Library screen for HepG2 cell viability”.
